The text below walks through data of patent publication US6565876B1, “Carnitine and inositol phosphate-containing composition useful as dietary supplement or drug” (Sigma-Tau HealthScience S.p.A., priority 1999, dated 2003).

For one test, the system named is ornithine decarboxylase. Description: Antiproliferative activity, teleocidin-induced ornithine decarboxylase in epidermis. It counts as in vivo, mice.
The test system of test [1] is collagen-induced type II arthritis. Description: Collagen-induced arthritis test. It counts as in vivo. The conditions noted are these: mice; 200 mg/kg each, oral, from day of collagen injection to end of sixth week; oedema scores 1 to 4. How it is done: Confirmation of the anti-inflammatory effects of the composition according to the invention was obtained using as a test collagen-induced type II arthritis according to the technique described by […]. Exp. Med., 146:857, 1977). In this test, a group of mice were immunised by intradermal injection at the base of the tail of 100 μg of natural collagen emulsified in Freund complete adjuvant (Difco Labs., Detroit, USA). After three weeks, the animals thus treated were again injected intraperitoneally with the same dose of emulsified collagen. The treatment with propionyl […] (200 mg/kg) or with inositol hexaphosphate (200 mg/kg) or with the two compounds in combination was administered orally from the day of collagen injection up to the end of the sixth week. One group of animals received no treatment and served as a control group. The intensity of the oedema was assessed by assigning scores from 1 to 4.

The test system of test [2] is carrageenin-induced oedema of the rat paw. Description: Carrageenin oedema test. The test is classed as in vivo. The settings on record: 250 mg/kg each, oral. How it is done:
To assess the anti-inflammatory effect of the new composition the carrageenin oedema test was used, in which rat paws are injected with carrageenin. The injection of 0.1 mL of 1% carrageenin solution (Sigma Chemical, St. Louis, Mo., USA) in the subplantar area of the rat's right paw induced marked oedema of the paw which reached its maximum intensity 4-5 hours after injection. The oedema was measured by mercury plethysmography at various different time intervals up to the fourth hour after carrageenin injection. Both propionyl L-carnitine (250 mg/kg) and IP6 (250 mg/kg) were administered orally half an hour prior to the subplantar carrageenin injection.

The subject of a further test is chick cerebral neurons. Description: Neuronal hypoxia, NaCN-induced, ATP assay. The test is classed as cell-based. The conditions noted are these: propionyl L-carnitine 100 mg/L, IP6 50 mg/L; for ATP after reoxygenation time 0 / ATP after reoxygenation time 30 min: NaCN 1 mmol/L for 120 min; for ATP after reoxygenation time 0: reoxygenation 0; for ATP after reoxygenation time 30 min: reoxygenation 30 min. How it is done: To assess the protective activity of the composition according to the invention on hypoxia-induced damage at the neuronal level, tests were performed on cultures of chick cerebral neurons in which the reduction in cell respiration was induced by introducing NaCN into the cultures. […] The chick cerebral neuron cultures were prepared according to the technique described by […]., Nature, 281:378, 1979). Cytotoxic hypoxia was induced by adding NaCN to the culture medium to a final concentration of 1 mmol/L. After 120 min the medium was replaced by an NaCN-free medium, and the metabolism of the cells was blocked by washing with an iced buffer solution. The ATP assay was performed according to the procedure described by Werner (Werner A. J., Chromatogr. Biomed. Appl., 421:257, 1987).

For test [3], the system named is platelets from healthy volunteers. Description: Anti-platelet aggregation activity (collagen-induced, Born method). The settings on record: collagen 2.5 and 5 ng/mL, 10 min incubation, IP6 4 and 8 ng/mL. It counts as cell-based, human. How it is done: The anti-platelet-aggregation activity of the composition according to the invention was assessed in blood samples from healthy volunteers. […] The aggregating agent used was collagen (2.5 ng/mL, 5 ng/mL) and the aggregation induced was measured photometrically according to the method described by Born (Born G. V., Nature, 194:927, 1962). […] The doses of propionyl L-carnitine used were 10 ng and 20 ng/mL, while the IP6 doses were 4 ng and 8 ng/mL.

For test [4], the system named is atherosclerotic vascular lesions of the abdominal aorta. Description: Anti-atherosclerotic activity, atherogenic diet. The test is classed as in vivo, male Wistar rats. The settings on record: rats; atherogenic diet six weeks; daily 150 mg/kg propionyl carnitine, 100 mg/kg IP6. How it is done: […] according to the regimen proposed by Melinow (Melinow M. R., Atherosclerosis, 48:105, 1983). At the end of the sixth week of treatment, marked atherosclerotic vascular lesions had formed which were particularly pronounced at the abdominal aorta level. The severity of these lesions was evaluated by a morphometric method, measuring the thickness of the abdominal aorta and the intensity of the staining induced by Sudan IV with a progressive scoring system from 1 to 5. In these tests, the rats received daily administrations of 150 mg/kg of propionyl carnitine and 100 mg/kg of IP6, together with their atherogenic diets.

The subject of test [5] is muscle lipoperoxidation (malondialdehyde). Description: Muscle fatigue test, forced muscular exercise on moving belt, MDA in gastrocnemius muscle. It counts as in vivo, rats. The settings on record: propionyl L-carnitine 200 mg/kg, IP6 100 mg/kg, three days before exercise; for MDA content in muscle after 5 min: gastrocnemius muscle 5 min after end of exercise; for MDA content in muscle after 30 min: gastrocnemius muscle 30 min after end of exercise. How it is done:
Forced muscular exercise was tested in various groups of rats by making them run on a moving belt at controlled speed and angle of tilt, as described by Li (Li J. X., Acta Pharmacologica Sinica, 20:126, 1999) and Husain (Husain K., Pathophysiology, 4:69, 1997). The animals were made to run on an approximately 5° slope and at a belt speed of 28 m/min. The animals' stamina reached the point of exhaustion after approximately 85 min of exercise. The test was carried out in groups of animals which, during the three days preceding exercise, received 200 mg/kg of propionyl L-carnitine or 100 mg/kg of IP6 alone or in combination. Five and thirty minutes, respectively, after the end of exercise, samples of gastrocnemius muscle were taken from the sacrificed animals and used for measuring the malondialdehyde (MDA) content as a marker for the level of lipoperoxidation by means of reaction with thiobarbituric acid according to the method described by Ohkawa (Ohkawa H., Anal. Biochem., 95:351, 1979).

The subject of test [6] is swimming endurance in forced swimming. Description: Swimming endurance test. The settings on record: propionyl L-carnitine 200 mg/kg, IP6 100 mg/kg, oral on the three days preceding the test. The test is classed as in vivo, mice. How it is done: Since IP6, which is rich in phosphate groups, is a useful energy reserve, a series of tests were performed to establish whether its administration may increase the swimming endurance time in mice submitted to forced swimming in a rectangular tank full of water, according to the technique described by Zheng (Zheng R. L., Acta Pharmacol. Sinica, 14:47, 1993) and whether its effect could be enhanced by using it in combination with a carnitine, such as, for instance, propionyl L-carnitine. The tests were performed on various groups of animals treated with propionyl L-carnitine (200 mg/kg) or with IP6 (100 mg/kg) alone or with the two compounds in combination. The compounds were administered orally on the three days preceding the test. In the animals thus treated, swimming endurance time was measured as compared to control animals.

The mark [7] stands for this setting: mouse epidermis 5 h after teleocidin 5 μg/mouse s.c., oral pretreatment propionyl L-carnitine 200 mg/kg, IP6 100 mg/kg.
Setting [8] is: rat paw oedema, half an hour before carrageenin.

Consider `O=P(O)(O)O[C@H]1[C@H](OP(=O)(O)O)[C@@H](OP(=O)(O)O)[C@H](OP(=O)(O)O)[C@@H](OP(=O)(O)O)[C@H]1OP(=O)(O)O` [IP6, inositol hexaphosphate], for which the Ornithine decarboxylase activity with ornithine decarboxylase (setting [7]) is listed as 1.95 ± 0.2 nMol of CO2/60 min/mg protein. In addition, in the test with ornithine decarboxylase (oral pretreatment propionyl L-carnitine 200 mg/kg, IP6 100 mg/kg), the “reduction of the teleocidin-induced increase in ornithine decarboxylase activity (in words)” value is reported as “significantly reduced”. Further, the oedema inhibition entry in test [1] is reported as “approximately 20%”. For the same compound, in test [2] (rat paw oedema, half an hour before carrageenin, 1 h), the “% inhibition after 1 h” value is recorded as 15 ± 1.1%. Moreover, in test [2] (setting [8]), the “% inhibition after 2 h” value is on record as 20 ± 2.1% and the “% inhibition after 4 h” value worked out at 15 ± 0.6%. For the same compound, in test [2] (rat), the “inhibitory action on the inflammatory reaction induced by carrageenin (in words)” value is on record as “slight inhibitory action”. In addition, in the test with chick cerebral neurons, the “ATP after reoxygenation time 0” value was 12.4 ± 2.1 nmol g protein and the “ATP after reoxygenation time 30 min” value worked out at 16.9 ± 1.9 nmol g protein. In addition, in the test on chick cerebral neurons (NaCN 1 mmol/L), the “ATP levels after anoxia and reoxygenation (in words)” value is recorded as “a lesser reduction of ATP levels is observed as well as more rapid restoration of ATP levels”. For the same compound, in test [3], the “aggregating action of collagen, reduced to” value is 40%. Besides, the “protective effect against atherosclerotic lesions (morphometric examination and Sudan IV staining)” value in test [4] is reported as “only a slight protective effect”. Besides, in test [5], the “MDA content in muscle after 5 min” value was 200 ± 16 nmol/g (WW), the “MDA content in muscle after 30 min” value was 205 ± 8 nmol/g (WW) and the “muscle lipoperoxidation in muscle homogenate (in words)” value is on record as “capable of reducing the levels of muscle lipoperoxidation”. In addition, in test [6], the “Swimming time” value was 136 ± 16 min and the “mean swimming endurance time versus controls (in words)” value was “slightly increased”.
With `CCC(=O)OC(CC(=O)[O-])C[N+](C)(C)C` [Propionyl L-carnitine, propionyl L-carnitine], the Ornithine decarboxylase activity with ornithine decarboxylase (setting [7]) was 2.1 ± 0.2 nMol of CO2/60 min/mg protein. Moreover, the oedema inhibition result in test [1] is given as “no inhibitory effect”. Moreover, in test [2] (setting [8]), the “% inhibition after 2 h” value was 15 ± 0.3% and the “% inhibition after 4 h” value is 8 ± 0.9%. In addition, in the test on chick cerebral neurons, the “ATP after reoxygenation time 0” value was determined as 11.1 ± 1.6 nmol g protein and the “ATP after reoxygenation time 30 min” value came out at 16.3 ± 2.2 nmol g protein. In addition, the “inhibition of the aggregating action of collagen” value in test [3] (propionyl L-carnitine 10 and 20 ng/mL) was “does not inhibit”. Besides, in test [5], the “MDA content in muscle after 5 min” value was 210 ± 10 nmol/g (WW) and the “MDA content in muscle after 30 min” value is 212 ± 14 nmol/g (WW). The “Swimming time” value in test [6] is 116 ± 19 min.
On to teleocidin, for which the Ornithine decarboxylase activity with ornithine decarboxylase (mouse epidermis 5 h after teleocidin 5 μg/mouse s.c. alone, no pretreatment) is 2.6 ± 0.4 nMol of CO2/60 min/mg protein.
